These compounds were tested on hepatocellular carcinoma cell line Hub-7 (assay: Cell proliferation assay (CELL-TITER GLO cell viability)). Conditions: 24 h, Hub-7 cells, 24 h incubation, read-out: Inhibition of Cell Proliferation EC50.
Format: cell-based
How it was run: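 […] cells (4,000/well) seeded overnight, then exposed 24 h to compound from 10 μM in 3-fold serial dilutions. Viability read by CELL-TITER GLO luminescence; EC50 values derived.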

Row | EC50 [nM] | SMILES
1 | ≤ 100 | C#CC(=O)N(c1cccc(Cl)c1)C(C(=O)NCc1ccccc1)c1cccc(N)c1 (stereo not drawn) [A33, N-(1-(3-Aminophenyl)-2-(benzylamino)-2-oxoethyl)-N-(3-chlorophenyl)-propiolamide]
2 | ≤ 100 | C#CC(=O)N(c1ccc2nsnc2c1)C(C(=O)NCc1ccccc1)c1ccccc1 (stereo not drawn) [A94, N-(Benzo[c][1,2,5]thiadiazol-5-yl)-N-(2-(benzylamino)-2-oxo-1-phenylethyl)-propiolamide]
3 | 100 to 500 | C#CC(=O)N(CCc1ccccc1)C1(C(=O)NCc2ccccc2)CCCC(C(=O)OC)C1 (stereo not drawn) [A166, Methyl 3-(benzylcarbamoyl)-3-(N-phenethylpropiolamido)cyclohexane-1-carboxylate]
4 | 100 to 500 | C#CC(=O)N(c1ccc(OC)c(Cl)c1)C(C(=O)NC(C)(C)C)c1cccc(N)c1 (stereo not drawn) [A21, N-(1-(3-Aminophenyl)-2-(tert-butylamino)-2-oxoethyl)-N-(3-chloro-4-methoxyphenyl)propiolamide]
5 | ≤ 100 | C#CC(=O)N(c1cccc(Cl)c1)C(C(=O)NCc1ccccc1C#N)c1ccccc1 (stereo not drawn) [A178, N-(3-Chlorophenyl)-N-(2-((2-cyanobenzyl)amino)-2-oxo-1-phenylethyl)-propiolamide]
6 | 100 to 500 | C#CC(=O)N(c1cccc(Cl)c1)C(C(=O)NC(C)(C)C)c1cccc(N)c1 (stereo not drawn) [A20, N-(1-(3-aminophenyl)-2-(tert-butylamino)-2-oxoethyl)-N-(3-chlorophenyl)propiolamide]
7 | > 10000 | Cn1ncc2cc(N(C(=O)C(F)F)C3(C(=O)NCc4ccccc4)CCOCC3)ccc21 [D1, N-Benzyl-4-(2,2-difluoro-N-(1-methyl-1H-indazol-5-yl)acetamido)tetrahydro-2H-pyran-4-carboxamide]
8 | 100 to 500 | C#CC(=O)N(c1cccc(C#N)c1)C(C(=O)NCc1ccccc1)c1cccc(N)c1 (stereo not drawn) [A38, N-(1-(3-Aminophenyl)-2-(benzylamino)-2-oxoethyl)-N-(3-cyanophenyl)-propiolamide]
9 | 500 to 2000 | C#CC(=O)N(Cc1ccccc1)C(C(=O)NCc1ccccc1)c1cccc(N)c1 (stereo not drawn) [A36, N-(1-(3-Aminophenyl)-2-(benzylamino)-2-oxoethyl)-N-benzylpropiolamide]
10 | ≤ 100 | C#CC(=O)N(c1cccc2c1CCC2=O)C1(C(=O)NCc2ccccc2)CCOCC1 [A148, N-Benzyl-4-(N-(1-oxo-2,3-dihydro-1H-inden-4-yl)propiolamido)tetrahydro-2H-pyran-4-carboxamide]
11 | 100 to 500 | C#CC(=O)N(Cc1cccc(O)c1)C1(C(=O)NCc2ccccc2)CCCC(C(=O)OC)C1 (stereo not drawn) [A167, Methyl 3-(benzylcarbamoyl)-3-(N-(3-hydroxybenzyl)propiolamido)cyclohexane-1-carboxylate]
12 | 100 to 500 | C#CC(=O)N(Cc1ccc(C(=O)OC)cc1)C(C)C(=O)NCc1ccccc1 (stereo not drawn) [A84, Methyl 4-((N-(1-(benzylamino)-1-oxopropan-2-yl)propiolamido)methyl)-benzoate]
13 | > 10000 | N#CCC(=O)N(c1cccc(Cl)c1)C1(C(=O)NCc2ccccc2)CCOCC1 [D7, N-Benzyl-4-(N-(3-chlorophenyl)-2-cyanoacetamido)tetrahydro-2H-pyran-4-carboxamide]
14 | > 10000 | C#CC(=O)N(c1ccc(S(N)(=O)=O)cc1)C(C(=O)NCc1ccccc1)c1ccc(N)cc1 (stereo not drawn) [A68, N-(1-(4-Aminophenyl)-2-(benzylamino)-2-oxoethyl)-N-(4-sulfamoylphenyl)-propiolamide]
15 | 500 to 2000 | C#CC(=O)N(c1cccc(Cl)c1)C1(C(=O)NCS(=O)(=O)c2ccc(C)cc2)CCOCC1 [A159, 4-(N-(3-Chlorophenyl)propiolamido)-N-(tosylmethyl)tetrahydro-2H-pyran-4-carboxamide]
16 | > 10000 | CC#CC(=O)N(c1cccc(Cl)c1)C(C(=O)NCc1ccccc1)c1ccccc1 (stereo not drawn) [A117, N-(2-(Benzylamino)-2-oxo-1-phenylethyl)-N-(3-chlorophenyl)but-2-ynamide]
17 | 2000 to 10000 | C#CC(=O)N(c1ccc(S(C)(=O)=O)cc1)C(C(=O)NC(C)(C)C)c1ccc(N)cc1 (stereo not drawn) [A15, N-(1-(4-Aminophenyl)-2-(tert-butylamino)-2-oxoethyl)-N-(4-(methylsulfonyl)-phenyl)propiolamide]
18 | 2000 to 10000 | C#CC(=O)N(c1ccc(NC(C)=O)cc1)C(C(=O)NC(C)(C)C)c1ccc(N)cc1 (stereo not drawn) [A13, N-(4-Acetamidophenyl)-N-(1-(4-aminophenyl)-2-(tert-butylamino)-2-oxoethyl)-propiolamide]
19 | 500 to 2000 | C#CC(=O)N(c1cccc(Cl)c1)C(C(=O)NCc1ccccc1)C1CCOCC1 (stereo not drawn) [A78, N-(2-(Benzylamino)-2-oxo-1-(tetrahydro-2H-pyran-4-yl)ethyl)-N-(3-chloro-phenyl)propiolamide]
20 | 2000 to 10000 | C#CC(=O)N(c1ccc2[nH]ccc2c1)C1(C(=O)NCc2ccccc2)CCOCC1 [A152, 4-(N-(1H-Indol-5-yl)propiolamido)-N-benzyltetrahydro-2H-pyran-4-carboxamide]
21 | 100 to 500 | C#CC(=O)N(c1cccc(S(C)(=O)=O)c1)C(C(=O)NCc1ccccc1)c1ccccc1 (stereo not drawn) [A92, N-(2-(Benzylamino)-2-oxo-1-phenylethyl)-N-(3-(methylsulfonyl)-phenyl)-propiolamide]
22 | ≤ 100 | C#CC(=O)N(c1cccc(C(=O)OC)c1)C(C(=O)NCc1ccccc1)c1cccs1 (stereo not drawn) [A73, Methyl 3-(N-(2-(benzylamino)-2-oxo-1-(thiophen-2-yl)ethyl)propiolamido)-benzoate]
23 | > 10000 | C=CC(=O)N(Cc1cccc(O)c1)C1(C(=O)NCc2ccccc2)CCOCC1 [B7, N-Benzyl-4-(N-(3-hydroxybenzyl)acrylamido)tetrahydro-2H-pyran-4-carboxamide]
24 | ≤ 100 | C#CC(=O)N(c1ccc(OC)c(Cl)c1)C(C(=O)NCc1ccccc1)c1cccc(N)c1 (stereo not drawn) [A34, N-(1-(3-Aminophenyl)-2-(benzylamino)-2-oxoethyl)-N-(3-chloro-4-methoxy-phenyl)propiolamide]
25 | > 10000 | Cn1ncc2cc(N(C(=O)CO)C3(C(=O)NCc4ccccc4)CCOCC3)ccc21 [D3, N-Benzyl-4-(2-hydroxy-N-(1-methyl-1H-indazol-5-yl)acetamido)tetrahydro-2H-pyran-4-carboxamide]
26 | ≤ 100 | C#CC(=O)N(c1ccc(C(=O)OC)cc1)C(C(=O)NCc1ccccc1)c1cccc(N)c1 (stereo not drawn) [A49, Methyl 4-(N-(1-(3-aminophenyl)-2-(benzylamino)-2-oxoethyl)propiolamido)-benzoate]
27 | 100 to 500 | C#CC(=O)N(c1cccc(-c2ccn(C)n2)c1)C1(C(=O)NCc2ccccc2)CCOCC1 [A136, N-Benzyl-4-(N-(3-(1-methyl-1H-pyrazol-3-yl)phenyl)propiolamido)tetrahydro-2H-pyran-4-carboxamide]
28 | ≤ 100 | C#CC(=O)N(c1cccc(Cl)c1)C(C(=O)NCc1ccccc1)c1cccs1 (stereo not drawn) [A75, N-(2-(Benzylamino)-2-oxo-1-(thiophen-2-yl)ethyl)-N-(3-chlorophenyl)-propiolamide]
29 | ≤ 100 | C#CC(=O)N(c1cccc(Cl)c1Cl)C(C(=O)NCc1ccccc1)c1ccccc1 (stereo not drawn) [A82, N-(2-(Benzylamino)-2-oxo-1-phenylethyl)-N-(2,3-dichlorophenyl)-propiolamide]

Same assay, conditions: Hub-7 cells, 24 h incubation, read-out: Inhibition of Cell Proliferation EC50

Row | EC50 [nM] | SMILES
30 | 100 to 500 | C#CC(=O)N(c1cccc(C(=O)OC)c1)C(C(=O)NC(C)(C)C)c1ccc(N)cc1 (stereo not drawn) [A28, Methyl 3-(N-(1-(4-aminophenyl)-2-(tert-butylamino)-2-oxoethyl)-propiolamido)-benzoate]

Reference: patent US12516016B2, “GPX4 inhibitors, pharmaceutical compositions thereof, and their use for treating GPX4-mediated diseases” (EUBULUS BIOTHERAPEUTICS (HONG KONG) LIMITED, priority 2020, dated 2026)
